In ChEMBL document CHEMBL5500409, “Discovery of 5-(Piperidin-4-yl)-1,2,4-oxadiazole Derivatives as a New Class of Human Caseinolytic Protease P Agonists for the Treatment of Hepatocellular Carcinoma” (J Med Chem, 2024):

Experiments:
[1] = system: HCCLM3; assay: cells; conditions: Homo sapiens, HCCLM3, 72 h, read-out: INH
Description: Antiproliferative activity against human HCCLM3 cells assessed as inhibition of cell proliferation at 10 uM measured after 72 hrs by MTT assay relative to control

[2] = system: HCCLM3; assay: cells; conditions: Homo sapiens, HCCLM3, 72 h
Description: Antiproliferative activity against human HCCLM3 cells assessed as inhibition of cell proliferation measured after 72 hrs by MTT assay

[3] = molecular target: T1, ATP-dependent Clp protease proteolytic subunit, mitochondrial (Homo sapiens, UniProt Q16740); assay: Agonist activity at human ClpP using Ac-WLA-AMC as substrate assessed as induction of substrate degradation
T1 sequence (Q16740 whole entry): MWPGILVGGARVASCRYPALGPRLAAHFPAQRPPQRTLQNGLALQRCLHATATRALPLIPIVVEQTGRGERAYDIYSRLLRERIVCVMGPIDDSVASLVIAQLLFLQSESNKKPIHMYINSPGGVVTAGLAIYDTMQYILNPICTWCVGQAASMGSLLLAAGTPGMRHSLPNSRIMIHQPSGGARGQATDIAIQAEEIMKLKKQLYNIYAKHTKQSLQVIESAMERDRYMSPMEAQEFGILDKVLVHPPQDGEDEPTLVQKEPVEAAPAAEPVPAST

[4] = molecular target: T1, ATP-dependent Clp protease proteolytic subunit, mitochondrial; assay: Agonist activity at N-terminal SUMO tagged human ClpP transfected in Escherichia coli assessed as induction of alpha-casein degradation preincubated for 10 mins followed by alpha-casein addition and measured after 2 hrs by brilliant blue staining based SDS-PAGE analysis
[5] = system: HCCLM3; assay: Antitumor activity against human HCCLM3 cells xenografted in female Balb/c nude mouse assessed as tumor growth inhibition at 20 mg/kg, ip tumor inoculated for 5 days followed by compound administration every 2 days for 4 weeks relative to control; conditions: HCCLM3, 672 h, read-out: TGI

| Compound | inhibition at 10 µM [1] [%] | IC50 [2] [µM] | also measured |
| --- | --- | --- | --- |
| Fc1ccc(Cc2noc(C3CCN(Cc4cccnc4)CC3)n2)cc1Cl | 16.7 | – | – |
| N#Cc1cccc(CN2CCC(c3nc(-c4ccc(C(F)(F)F)cc4)no3)CC2)c1 | 19.5 | – | – |
| O=C(Cc1ccc(F)cc1)N1CC[C@H](c2nc(Cc3ccc(F)cc3)no2)C1 | 5.8 | – | – |
| Fc1ccc(Cc2noc(C3CCN(Cc4ccc(C(F)(F)F)cc4)CC3)n2)cc1 | 18.8 | – | – |
| Fc1ccc(CN2CCC[C@@H](c3nc(-c4ccc(F)cc4)no3)C2)cc1 | 11 | – | – |
| O=C(NCCc1nc(Cc2ccc(F)cc2)no1)c1ccc(F)cc1 | 24.3 | – | – |
| O=C(c1ccc(F)cc1)N1CC(c2nc(Cc3ccc(F)cc3)no2)C1 | 23 | – | – |
| N#Cc1cccc(CN2CCC(c3nc(Cc4ccc(Br)cc4)no3)CC2)c1 | 70 | 6.7 | – |
| O=C(Cc1ccc(F)cc1)N1CC(c2nc(Cc3ccc(F)cc3)no2)C1 | 11.5 | – | – |
| N#Cc1cccc(CN2CCC(c3nc(Cc4ccc(F)cc4Br)no3)CC2)c1 | 12.7 | – | – |
| O=C(c1ccc(F)cc1)N1CCC[C@H](c2nc(-c3ccc(F)cc3)no2)C1 | – | 66.4 | EC50 [3]: 1.2 µM; EC50 [4]: 29.7 µM |
| Cc1ccc(Cc2noc(C3CCN(Cc4cccc(C#N)c4)CC3)n2)cc1 | 20.6 | – | – |
| N#Cc1cccc(CN2CC(c3nc(Cc4ccc(F)cc4)no3)C2)c1 | 5.9 | – | – |
| O=C(NCCc1nc(Cc2ccc(F)cc2)no1)c1ccc(C(F)(F)F)cc1 | 15.5 | – | – |
| N#Cc1cccc(CN2CCC(c3nc(Cc4cc(F)ccc4F)no3)CC2)c1 | 12.2 | – | – |
| N#Cc1cccc(CN2CCC(c3nc(Cc4ccc(Cl)cc4F)no3)CC2)c1 | 55.9 | 9.3 | – |
| O=C(Cc1ccc(F)cc1)N1CCC[C@@H](c2nc(-c3ccc(F)cc3)no2)C1 | 18.3 | – | – |
| Fc1ccc(Cc2noc([C@H]3CCCN(Cc4ccc(F)cc4)C3)n2)cc1 | 22.5 | – | – |
| N#Cc1cccc(CN2CCC(c3nc(Cc4ccc(Br)c(F)c4)no3)CC2)c1 | 74.4 | 6.4 | – |
| N#Cc1cccc(CN2CCC[C@@H]2c2nc(Cc3ccc(F)cc3)no2)c1 | 38.8 | – | – |
| O=S(=O)(NCCc1nc(Cc2ccc(F)cc2)no1)c1ccc(F)cc1 | 13.2 | – | – |
| Fc1ccc(Cc2noc(C3CCN(Cc4ccccn4)CC3)n2)cc1Cl | 11.1 | – | – |
| Fc1ccc(Cc2noc([C@H]3CCCN3Cc3ccc(F)cc3)n2)cc1 | 32.5 | – | – |
| N#Cc1cccc(CN2CCC(c3nc(Cc4ccc(Br)cc4F)no3)CC2)c1 | 23.7 | – | – |
| N#Cc1cccc(CN2CCC(c3nc(Cc4cccc(C(F)(F)F)c4)no3)CC2)c1 | 73.6 | 7.2 | – |
| O=C(c1ccc(F)cc1)N1CCC[C@@H](c2nc(-c3ccc(F)cc3)no2)C1 | 17.8 | – | – |
| N#Cc1cccc(CN2CCC(c3nc(Cc4cccc(F)c4)no3)CC2)c1 | 50.4 | 9.8 | – |

| Compound | inhibition at 10 µM [1] [%] | IC50 [2] [µM] | also measured |
| --- | --- | --- | --- |
| N#Cc1cccc(CN2CCC(c3nc(Cc4ccc(Cl)c(F)c4)no3)CC2)c1 | 71.1 | 7.6 | – |
| Cc1ccccc1Cc1noc(C2CCN(Cc3cccc(C#N)c3)CC2)n1 | 12.3 | – | – |
| N#Cc1cccc(CN2CCC(c3nc(Cc4cc(F)c(F)c(F)c4)no3)CC2)c1 | 80.9 | 4.8 | – |
| N#Cc1cccc(CN2CCC(c3nc(Cc4ccc(F)cc4)no3)CC2)c1 | 77.5 | 5.9 | – |
| O=C(Cc1ccc(F)cc1)N1CCC[C@H](c2nc(Cc3ccc(F)cc3)no2)C1 | 5.3 | – | – |
| N#Cc1cccc(CN2CCC(c3nc(Cc4cc(F)cc(F)c4)no3)CC2)c1 | 46.4 | – | – |
| N#Cc1cccc(CN2CCC(c3nc(Cc4ccc(F)cc4F)no3)CC2)c1 | 36.4 | – | – |
| N#Cc1cccc(CN2CCC(c3nc(Cc4ccc(F)c(F)c4)no3)CC2)c1 | 88.3 | 3.7 | – |
| Fc1ccc(Cc2noc([C@H]3CCCN3Cc3ccc(C(F)(F)F)cc3)n2)cc1 | 13.3 | – | – |
| O=C(c1ccc(F)cc1)N1CCC[C@H](c2nc(Cc3ccc(F)cc3)no2)C1 | 9.3 | – | – |
| O=C(c1ccc(F)cc1)N1CCC(c2nc(Cc3ccc(F)cc3)no2)CC1 | 22.1 | – | – |
| N#Cc1cccc(CN2CCC(c3nc(Cc4ccc(C(F)(F)F)cc4)no3)CC2)c1 | 56.4 | 9.2 | – |
| N#Cc1cccc(CN2CCC(c3nc(Cc4ccc(F)c(Br)c4)no3)CC2)c1 | 83.2 | 3.7 | – |
| N#Cc1cccc(CN2CCC(c3nc(Cc4cccc(F)c4F)no3)CC2)c1 | 11.7 | – | – |
| Fc1ccc(Cc2noc(C3CCN(Cc4ccc(F)cc4)CC3)n2)cc1 | 30 | – | – |
| N#Cc1cccc(CN2CCC(c3nc(Cc4ccc(Cl)cc4)no3)CC2)c1 | 61.5 | 8.9 | – |
| N#Cc1cccc(CC(=O)N2CCC(c3nc(Cc4ccc(F)cc4)no3)CC2)c1 | 31.5 | – | – |
| N#Cc1cccc(C(=O)N2CCC(c3nc(Cc4ccc(F)cc4)no3)CC2)c1 | 22.4 | – | – |
| N#Cc1cccc(CN2CCC(c3nc(Cc4ccc(F)cc4Cl)no3)CC2)c1 | 10.4 | – | – |
| N#Cc1cccc(CN2CCC(c3nc(Cc4ccccc4F)no3)CC2)c1 | 68.9 | 7.9 | – |
| CNC(=O)c1cc(Oc2ccc(NC(=O)Nc3ccc(Cl)c(C(F)(F)F)c3)cc2)ccn1 [SORAFENIB] | – | 6.3 | inhibition in vivo at 20 mg/kg [5]: 80.2% |
| N#Cc1cccc(CN2CCC(c3nc(Cc4ccccc4)no3)CC2)c1 | 64.5 | 7.7 | – |
| N#Cc1cccc(CN2CCC(c3nc(-c4cccc(C(F)(F)F)c4)no3)CC2)c1 | 30.3 | – | – |
| N#Cc1cccc(C(=O)NCCc2nc(Cc3ccc(F)cc3)no2)c1 | 16.1 | – | – |
| O=C(c1ccc(F)cc1)N1CC[C@H](c2nc(Cc3ccc(F)cc3)no2)C1 | 6 | – | – |
| N#Cc1cccc(CN2CCC(c3nc(Cc4c(F)c(F)c(F)c(F)c4F)no3)CC2)c1 | 12.8 | – | – |
